These results are taken from ChEMBL document CHEMBL1201862, “PubChem BioAssay data set” (2004).

Structures are written as SMILES. Calls of active or inactive are those of the source. Bounds are passed on as bounds.

A word on the EC50: it is the concentration needed to bring the measured effect to its halfway point. The term IC50 denotes the concentration needed to halve the response being measured. The term CC50 denotes the concentration that lowers cell viability or growth by half. By Ki is commonly meant a measure of affinity in units of concentration, obtained from inhibition or displacement. For orientation: AC50 means the midpoint of the concentration-response curve, whichever way the signal moves.

One assay deals with T1, X-box-binding protein 1 (Homo sapiens, UniProt P17861).
T1 sequence (P17861 whole entry): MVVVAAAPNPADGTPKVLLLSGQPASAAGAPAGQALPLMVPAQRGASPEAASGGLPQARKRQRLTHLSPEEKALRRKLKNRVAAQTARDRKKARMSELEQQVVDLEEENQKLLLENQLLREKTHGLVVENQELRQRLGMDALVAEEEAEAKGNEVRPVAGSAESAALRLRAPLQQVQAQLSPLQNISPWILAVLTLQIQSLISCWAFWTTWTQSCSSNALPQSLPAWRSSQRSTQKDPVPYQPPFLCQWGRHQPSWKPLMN
In kind it is functional, Cricetulus griseus.

Another assay has as its target Ion channel NompC (Danio rerio, UniProt Q7T1G6). Put plainly: Fluorescence counterscreen assay for TRPML3 agonists: dose response cell-based high-throughput screening assay to identify agonists of the transient receptor potential channel N1 (TRPN1). [Related pubchem assays: 1526, 1424, 1448 ]. In kind it is functional. For orientation: A counterscreen serves to expose hits that act by an unwanted route or on another target.

The next assay addresses T2, Mucolipin-3 (Homo sapiens, UniProt Q8TDD5).
T2 sequence (Q8TDD5 whole entry): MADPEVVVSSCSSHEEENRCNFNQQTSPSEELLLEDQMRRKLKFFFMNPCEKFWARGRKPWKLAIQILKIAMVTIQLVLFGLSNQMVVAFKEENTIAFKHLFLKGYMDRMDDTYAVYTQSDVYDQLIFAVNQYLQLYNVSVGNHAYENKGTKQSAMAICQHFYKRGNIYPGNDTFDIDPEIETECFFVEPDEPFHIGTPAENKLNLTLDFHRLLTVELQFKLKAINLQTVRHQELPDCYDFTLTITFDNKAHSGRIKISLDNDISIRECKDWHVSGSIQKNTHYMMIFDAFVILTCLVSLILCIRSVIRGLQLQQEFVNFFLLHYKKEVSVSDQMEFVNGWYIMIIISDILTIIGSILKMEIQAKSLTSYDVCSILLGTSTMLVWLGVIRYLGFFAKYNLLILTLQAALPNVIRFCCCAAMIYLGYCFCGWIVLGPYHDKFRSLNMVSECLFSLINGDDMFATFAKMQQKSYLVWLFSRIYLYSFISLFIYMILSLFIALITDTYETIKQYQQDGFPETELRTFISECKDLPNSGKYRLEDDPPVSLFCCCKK
Put plainly: Dose response cell-based high-throughput screening assay for agonists of the transient receptor potential channel ML3 (TRPML3). [Related pubchem assays: 1526, 1424, 1448 ]. In kind it is functional.

For another assay, the target named is T3, Bcl-2-like protein 10 (Homo sapiens, UniProt Q9HD36).
T3 sequence (Q9HD36 whole entry): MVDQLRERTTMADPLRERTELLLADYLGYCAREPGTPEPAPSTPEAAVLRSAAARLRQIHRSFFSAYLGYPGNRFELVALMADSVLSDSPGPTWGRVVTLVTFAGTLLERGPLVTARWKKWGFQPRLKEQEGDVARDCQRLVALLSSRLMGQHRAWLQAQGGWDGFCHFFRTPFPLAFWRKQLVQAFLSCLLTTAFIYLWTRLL
Put plainly: Bcl-B/TR3 peptide binding disruption – biochemical, fluorescence polarization, FITC-TR3 peptide, selectivity assay for Bfl-1 inhibitor project, primary screen (AID 748).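 Note: fluorescence polarization from a fluorescein-labelled TR3 peptide binding purified Bcl-B.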

For assay [1], the target named is T4, Heat shock factor protein 1 (Mus musculus, UniProt P38532).
T4 sequence (P38532 whole entry): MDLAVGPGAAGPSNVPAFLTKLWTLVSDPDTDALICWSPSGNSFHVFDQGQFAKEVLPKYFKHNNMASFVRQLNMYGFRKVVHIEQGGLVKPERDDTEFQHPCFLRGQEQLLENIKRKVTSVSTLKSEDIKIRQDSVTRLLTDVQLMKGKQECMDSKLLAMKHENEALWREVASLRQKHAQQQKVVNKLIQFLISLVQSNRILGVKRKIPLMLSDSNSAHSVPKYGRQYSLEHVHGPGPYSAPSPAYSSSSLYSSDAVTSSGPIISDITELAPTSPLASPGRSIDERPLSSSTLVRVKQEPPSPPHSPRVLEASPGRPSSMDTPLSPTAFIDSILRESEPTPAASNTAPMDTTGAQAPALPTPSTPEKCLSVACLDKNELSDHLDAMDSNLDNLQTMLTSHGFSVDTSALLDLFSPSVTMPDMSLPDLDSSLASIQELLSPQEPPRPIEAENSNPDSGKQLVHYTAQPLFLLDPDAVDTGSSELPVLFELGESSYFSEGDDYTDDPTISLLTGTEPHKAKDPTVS
Put plainly: decrease of HSF1-responsive luciferase luminescence – cell-based, NIH3T3, dose retest, confirmation (AID 2382).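 Note: NIH3T3 fibroblasts with HSF1-driven luciferase reporter stressed by proteasome inhibitor MG132; luminescence from HSF1-driven luciferase expression after 8 hours of MG132 stress.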 In kind it is functional.

The target of assay [2] is T5, Lysosomal acid glucosylceramidase (Homo sapiens, UniProt P04062).
T5 sequence (P04062 whole entry): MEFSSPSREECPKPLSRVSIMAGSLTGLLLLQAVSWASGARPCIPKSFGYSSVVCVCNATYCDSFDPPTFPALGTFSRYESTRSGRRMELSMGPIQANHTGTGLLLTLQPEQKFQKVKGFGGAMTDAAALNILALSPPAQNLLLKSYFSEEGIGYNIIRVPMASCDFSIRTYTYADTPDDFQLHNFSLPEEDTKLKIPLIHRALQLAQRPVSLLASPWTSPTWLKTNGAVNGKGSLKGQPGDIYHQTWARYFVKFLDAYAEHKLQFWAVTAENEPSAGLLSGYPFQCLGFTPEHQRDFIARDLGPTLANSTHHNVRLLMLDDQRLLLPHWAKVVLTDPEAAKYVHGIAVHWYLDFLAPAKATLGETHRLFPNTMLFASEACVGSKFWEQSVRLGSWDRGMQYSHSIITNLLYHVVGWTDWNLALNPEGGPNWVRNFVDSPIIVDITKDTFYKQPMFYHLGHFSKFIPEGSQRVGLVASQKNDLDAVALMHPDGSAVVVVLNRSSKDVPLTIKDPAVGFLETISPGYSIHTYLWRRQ
Put plainly: Dose response cell-based high throughput screening assay to identify enhancers of beta-glucosidase activity. [Related pubchem assays: 784 ]. In kind it is functional.

Assay [3] deals with Protein-tyrosine kinase 2-beta (Homo sapiens, UniProt Q14289).
Assay [4] in a line: A Cell Based Secondary Assay To Explore Cytotoxicity of Compounds that Sensitize Mycobacterium Tuberculosis to Beta-Lactam Antibiotics. In kind it is functional.
A further assay has as its target T6, fMet-Leu-Phe receptor (Homo sapiens, UniProt P21462).
T6 sequence (P21462 whole entry): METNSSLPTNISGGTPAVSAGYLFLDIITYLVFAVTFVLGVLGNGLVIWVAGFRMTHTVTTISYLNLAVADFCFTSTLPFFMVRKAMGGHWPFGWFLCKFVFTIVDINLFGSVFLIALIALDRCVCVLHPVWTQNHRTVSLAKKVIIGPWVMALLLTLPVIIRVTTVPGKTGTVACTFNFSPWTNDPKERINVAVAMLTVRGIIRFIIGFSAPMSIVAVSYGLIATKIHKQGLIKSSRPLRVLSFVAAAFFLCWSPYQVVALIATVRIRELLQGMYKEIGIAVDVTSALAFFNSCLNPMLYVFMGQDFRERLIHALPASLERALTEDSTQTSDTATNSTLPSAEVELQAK
Put plainly: formyl peptide receptor binders – dose response (AID 519). In kind it is functional.

The nature of assay [5]: viability of uninfected HEp-2 cells – cell-based, HTS, cytotoxicity control for RSV inhibitor project, dose response (AID 2410). In kind it is functional. The note with it: human respiratory syncytial virus.
Assay [6] in a line: Luminescence Cell-Based Dose Retest to Confirm Inhibitors of Cancer Stem Cells. [Related pubchem assays (depositor defined):AID2717, AID2721]. In kind it is functional. The note with it: Homo sapiens.
Assay [7] addresses T7, Voltage-gated N-type calcium channel alpha-1B subunit/Amyloid beta A4 precursor protein-binding family A member 1 (Homo sapiens, UniProt Q00975+Q02410). In kind it is protein assay.
The target in assay [8] is T7, Voltage-gated N-type calcium channel alpha-1B subunit/Amyloid beta A4 precursor protein-binding family A member 1. In kind it is protein assay. This is another data set of the same source.
The target of assay [9] is T8, Tyrosine-protein phosphatase non-receptor type 7 (Homo sapiens, UniProt P35236).
T8 sequence (P35236 whole entry): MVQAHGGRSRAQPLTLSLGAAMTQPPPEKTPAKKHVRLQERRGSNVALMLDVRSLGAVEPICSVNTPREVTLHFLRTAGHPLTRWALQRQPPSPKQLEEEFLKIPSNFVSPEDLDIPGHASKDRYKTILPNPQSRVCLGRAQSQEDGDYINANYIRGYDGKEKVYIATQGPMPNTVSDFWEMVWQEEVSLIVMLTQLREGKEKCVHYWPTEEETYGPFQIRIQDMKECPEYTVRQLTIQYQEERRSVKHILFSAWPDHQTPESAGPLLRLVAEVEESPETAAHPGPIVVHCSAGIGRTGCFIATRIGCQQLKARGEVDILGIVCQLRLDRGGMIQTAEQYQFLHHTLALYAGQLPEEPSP
Put plainly: HePTP tyrosine phosphatase activity blockers – biochemical, absorbance, leukemia target, primary screen (AID 521). In kind it is functional.

The next assay relates to HeLa. Put plainly: viability loss in HeLa cells – cell-based, 24 h, cherry-picked samples, cytotoxicity control, dose response (AID 504726).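 Note: potency for cytotoxicity as loss of luminescence signal.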 In kind it is functional. The settings on record: Homo sapiens.
The target in assay [10] is Peroxisome proliferator-activated receptor gamma/Nuclear receptor coactivator 1 (Homo sapiens, UniProt P37231). In kind it is functional.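 Note: agonist potency as compounds enhance coactivator SRC-1 recruitment to PPARgamma.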
For assay [11], the target named is Peroxisome proliferator-activated receptor gamma/Nuclear receptor coactivator 2 (Homo sapiens, UniProt P37231). In kind it is functional.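 Note: agonist potency for raising coactivator recruitment to the receptor.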
The target in assay [12] is Peroxisome proliferator-activated receptor gamma/Nuclear receptor coactivator 3 (Homo sapiens, UniProt P37231). In kind it is functional.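 Note: agonist potency for raising coactivator recruitment to the receptor.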
The next assay addresses Cytochrome P450 2C9 (Homo sapiens, UniProt P11712).
A further assay deals with Cytochrome P450 3A4 (Homo sapiens, UniProt P08684).
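Throughout, for Absolute IC50 (XBP1): confirmatory dose-response counter-screen serving a CHOP assay.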

Ion channel NompC, sequence (Q7T1G6 whole entry): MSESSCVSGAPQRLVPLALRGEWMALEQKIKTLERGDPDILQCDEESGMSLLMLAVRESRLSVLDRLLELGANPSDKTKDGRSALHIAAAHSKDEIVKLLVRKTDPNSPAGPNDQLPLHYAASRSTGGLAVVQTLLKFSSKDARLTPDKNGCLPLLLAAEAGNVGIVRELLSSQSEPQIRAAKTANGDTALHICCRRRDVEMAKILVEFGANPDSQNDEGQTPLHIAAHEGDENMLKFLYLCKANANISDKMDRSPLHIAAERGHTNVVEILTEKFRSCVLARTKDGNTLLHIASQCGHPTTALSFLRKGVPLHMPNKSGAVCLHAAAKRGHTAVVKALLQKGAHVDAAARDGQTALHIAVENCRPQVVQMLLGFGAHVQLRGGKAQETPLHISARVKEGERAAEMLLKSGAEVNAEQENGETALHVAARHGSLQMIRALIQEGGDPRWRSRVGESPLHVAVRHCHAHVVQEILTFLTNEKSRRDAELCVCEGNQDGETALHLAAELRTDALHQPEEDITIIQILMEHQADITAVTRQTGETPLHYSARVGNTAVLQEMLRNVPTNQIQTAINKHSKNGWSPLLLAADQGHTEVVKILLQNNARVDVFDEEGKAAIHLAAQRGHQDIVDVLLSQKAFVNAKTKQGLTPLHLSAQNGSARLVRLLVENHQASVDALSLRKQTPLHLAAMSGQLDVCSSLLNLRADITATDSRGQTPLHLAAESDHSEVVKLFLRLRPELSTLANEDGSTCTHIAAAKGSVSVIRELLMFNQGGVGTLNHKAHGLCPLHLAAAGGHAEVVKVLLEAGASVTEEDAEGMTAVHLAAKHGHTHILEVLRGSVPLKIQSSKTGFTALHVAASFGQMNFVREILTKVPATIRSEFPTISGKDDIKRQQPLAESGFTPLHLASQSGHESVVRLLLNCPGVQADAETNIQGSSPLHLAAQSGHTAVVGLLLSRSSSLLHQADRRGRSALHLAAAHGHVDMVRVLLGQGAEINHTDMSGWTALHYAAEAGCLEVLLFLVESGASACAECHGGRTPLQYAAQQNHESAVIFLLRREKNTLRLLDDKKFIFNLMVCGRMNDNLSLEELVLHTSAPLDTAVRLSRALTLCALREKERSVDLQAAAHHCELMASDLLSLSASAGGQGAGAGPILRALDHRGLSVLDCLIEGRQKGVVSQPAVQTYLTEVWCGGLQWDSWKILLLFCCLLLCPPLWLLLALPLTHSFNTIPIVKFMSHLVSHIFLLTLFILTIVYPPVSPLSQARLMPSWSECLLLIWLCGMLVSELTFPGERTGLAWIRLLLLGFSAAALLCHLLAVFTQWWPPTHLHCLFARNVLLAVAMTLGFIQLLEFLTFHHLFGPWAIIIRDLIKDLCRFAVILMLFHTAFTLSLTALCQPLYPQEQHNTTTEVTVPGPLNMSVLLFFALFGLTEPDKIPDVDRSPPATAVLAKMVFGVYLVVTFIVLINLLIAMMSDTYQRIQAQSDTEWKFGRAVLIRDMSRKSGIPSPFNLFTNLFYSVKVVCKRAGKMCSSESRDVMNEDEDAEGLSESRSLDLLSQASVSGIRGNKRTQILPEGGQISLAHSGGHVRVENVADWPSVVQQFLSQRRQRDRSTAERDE
T7 sequence (Q00975 whole entry): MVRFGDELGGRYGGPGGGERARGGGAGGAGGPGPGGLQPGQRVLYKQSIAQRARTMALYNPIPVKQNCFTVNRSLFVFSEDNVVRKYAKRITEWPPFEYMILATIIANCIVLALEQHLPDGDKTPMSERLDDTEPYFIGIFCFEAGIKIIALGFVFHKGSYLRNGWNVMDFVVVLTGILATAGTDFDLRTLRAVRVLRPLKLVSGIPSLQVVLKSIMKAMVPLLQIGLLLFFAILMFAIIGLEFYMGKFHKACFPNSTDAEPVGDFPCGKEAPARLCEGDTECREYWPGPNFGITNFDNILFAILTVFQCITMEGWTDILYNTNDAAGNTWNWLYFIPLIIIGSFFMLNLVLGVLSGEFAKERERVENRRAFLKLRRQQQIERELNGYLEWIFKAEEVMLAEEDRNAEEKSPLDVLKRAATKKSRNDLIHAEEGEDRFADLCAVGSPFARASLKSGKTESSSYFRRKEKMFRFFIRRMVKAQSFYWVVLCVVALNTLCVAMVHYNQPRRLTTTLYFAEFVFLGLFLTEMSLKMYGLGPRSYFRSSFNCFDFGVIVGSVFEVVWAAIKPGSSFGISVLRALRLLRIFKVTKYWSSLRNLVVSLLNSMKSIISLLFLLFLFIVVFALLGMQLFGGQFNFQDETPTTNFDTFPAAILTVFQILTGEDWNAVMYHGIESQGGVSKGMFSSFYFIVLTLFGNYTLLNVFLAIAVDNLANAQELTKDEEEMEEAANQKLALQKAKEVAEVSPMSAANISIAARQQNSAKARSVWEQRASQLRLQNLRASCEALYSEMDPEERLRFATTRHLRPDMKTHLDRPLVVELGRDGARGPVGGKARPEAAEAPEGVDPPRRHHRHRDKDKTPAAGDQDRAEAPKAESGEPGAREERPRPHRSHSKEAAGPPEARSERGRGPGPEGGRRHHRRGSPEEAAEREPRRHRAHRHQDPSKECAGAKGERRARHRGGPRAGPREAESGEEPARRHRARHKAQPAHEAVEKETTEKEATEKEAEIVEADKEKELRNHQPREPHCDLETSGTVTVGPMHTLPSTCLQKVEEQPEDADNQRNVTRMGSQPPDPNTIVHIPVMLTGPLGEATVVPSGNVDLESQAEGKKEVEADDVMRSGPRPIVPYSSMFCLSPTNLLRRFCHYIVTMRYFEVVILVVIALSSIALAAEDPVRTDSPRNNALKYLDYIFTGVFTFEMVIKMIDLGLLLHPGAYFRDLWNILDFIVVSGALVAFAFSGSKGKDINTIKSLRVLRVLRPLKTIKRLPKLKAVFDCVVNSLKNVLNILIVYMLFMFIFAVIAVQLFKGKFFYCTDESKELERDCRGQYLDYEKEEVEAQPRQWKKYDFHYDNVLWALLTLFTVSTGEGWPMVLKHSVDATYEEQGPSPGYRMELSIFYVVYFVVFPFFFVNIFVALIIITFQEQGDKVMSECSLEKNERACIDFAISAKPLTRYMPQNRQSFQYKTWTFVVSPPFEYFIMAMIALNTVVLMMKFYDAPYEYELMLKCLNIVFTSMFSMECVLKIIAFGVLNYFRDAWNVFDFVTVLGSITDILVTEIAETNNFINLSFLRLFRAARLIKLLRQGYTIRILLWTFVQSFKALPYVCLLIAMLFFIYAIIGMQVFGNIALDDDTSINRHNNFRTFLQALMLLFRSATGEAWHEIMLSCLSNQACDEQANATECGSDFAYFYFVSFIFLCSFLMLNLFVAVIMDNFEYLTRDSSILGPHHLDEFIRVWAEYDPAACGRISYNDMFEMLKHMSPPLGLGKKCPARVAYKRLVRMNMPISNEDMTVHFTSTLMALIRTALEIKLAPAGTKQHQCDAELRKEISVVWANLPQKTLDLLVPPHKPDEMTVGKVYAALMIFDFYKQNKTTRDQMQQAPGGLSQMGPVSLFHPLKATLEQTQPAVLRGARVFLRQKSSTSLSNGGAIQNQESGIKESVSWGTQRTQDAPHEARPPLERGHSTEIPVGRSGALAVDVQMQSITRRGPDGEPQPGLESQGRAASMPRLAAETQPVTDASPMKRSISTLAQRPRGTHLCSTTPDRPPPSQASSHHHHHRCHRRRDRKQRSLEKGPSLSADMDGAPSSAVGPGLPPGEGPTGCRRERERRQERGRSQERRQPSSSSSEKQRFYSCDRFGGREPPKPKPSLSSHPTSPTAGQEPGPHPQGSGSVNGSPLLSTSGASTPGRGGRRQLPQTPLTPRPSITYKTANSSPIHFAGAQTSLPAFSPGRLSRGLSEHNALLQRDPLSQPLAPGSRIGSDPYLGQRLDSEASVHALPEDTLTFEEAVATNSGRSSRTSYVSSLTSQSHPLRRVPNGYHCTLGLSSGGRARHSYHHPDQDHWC
T7 sequence (Q02410 whole entry): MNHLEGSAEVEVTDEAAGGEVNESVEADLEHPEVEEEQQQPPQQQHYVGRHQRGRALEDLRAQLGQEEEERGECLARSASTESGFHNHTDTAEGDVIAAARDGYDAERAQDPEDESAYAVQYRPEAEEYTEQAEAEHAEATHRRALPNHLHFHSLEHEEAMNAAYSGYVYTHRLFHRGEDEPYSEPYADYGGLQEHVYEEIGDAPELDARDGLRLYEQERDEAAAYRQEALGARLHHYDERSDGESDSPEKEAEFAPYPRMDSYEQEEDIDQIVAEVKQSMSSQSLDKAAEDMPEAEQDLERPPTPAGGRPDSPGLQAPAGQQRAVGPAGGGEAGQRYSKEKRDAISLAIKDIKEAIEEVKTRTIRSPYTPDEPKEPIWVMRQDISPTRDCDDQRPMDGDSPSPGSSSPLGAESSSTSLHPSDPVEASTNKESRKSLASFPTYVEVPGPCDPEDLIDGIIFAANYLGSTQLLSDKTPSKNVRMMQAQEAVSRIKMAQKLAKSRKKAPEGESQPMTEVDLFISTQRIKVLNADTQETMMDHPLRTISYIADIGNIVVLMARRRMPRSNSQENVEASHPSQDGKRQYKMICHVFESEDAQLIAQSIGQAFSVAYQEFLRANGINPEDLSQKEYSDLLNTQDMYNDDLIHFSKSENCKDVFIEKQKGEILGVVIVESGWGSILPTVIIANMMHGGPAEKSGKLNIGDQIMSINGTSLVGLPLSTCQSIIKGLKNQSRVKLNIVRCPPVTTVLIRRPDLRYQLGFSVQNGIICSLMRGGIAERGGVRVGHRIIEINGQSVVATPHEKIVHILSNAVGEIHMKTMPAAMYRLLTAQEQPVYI

Regarding `CCN(CC)CCOC(=O)c1ccc(N/C=C(/C#N)c2nc(-c3cccc(OC)c3)cs2)cc1`, at X-box-binding protein 1, the “Absolute IC50 (XBP1)” value came to 10 µM. Turning to `CCOc1cc(S(=O)(=O)N2CCCCCC2)ccc1F`, the EC50 at Ion channel NompC and on Mucolipin-3 was > 29.9 µM (not active) throughout. As to `O=C(Nc1cccnc1)c1ccc(S(=O)(=O)N2CCCCCC2)cc1`, the IC50 on Bcl-2-like protein 10 is > 100 µM (inactive). `Cc1cc(C(C)(C)C)oc1C(=O)N(CC(=O)NC1CCCC1)c1c(C)cccc1C`: the values for the EC50 (in [1]; at Ion channel NompC; on Mucolipin-3) were > 195 µM (not active), > 29.9 µM (not active) and 2.54 µM (active), respectively. `COC(=O)c1ccc(NC2c3ncccc3C(=O)N2Cc2cccs2)cc1` (stereo not drawn): the IC50 in the assay “cells” is 5.98 µM (active).

For `Cc1ccc(S(=O)(=O)Nc2cc(C(=O)O)ccc2N2CCCCC2)cc1`, the EC50 in [2] was > 50 µM (not active). On to `CO/C(O)=C1\C(C)=NC2=C(C(=O)CC(c3cccs3)C2)C1c1ccsc1` (stereo not drawn), for which, in assay [3], the IC50 is on record as > 69.5 µM (not active). For `Cc1ccnn1CC(=O)N/N=C/c1ccc([N+](=O)[O-])s1`, the CC50 in assay [4] was 36 µM (active). As for `O=S(=O)(Nc1ccccc1N1CCCCC1)c1ccc(F)cc1`, the EC50 was > 29.9 µM (not active) on Ion channel NompC and 3.27 µM (active) on Mucolipin-3. `CCN1C(=O)[C@@H]2[C@@H](c3ccc(-c4ccc(Cl)c(Cl)c4)c(OC)c3)N3CCC[C@@]3(C(=O)OC)[C@@H]2C1=O`: the CC50 in assay [4] was 30.4 µM (active).

Consider `CNS(=O)(=O)c1ccc(OC)c(-c2nnc3c4ccccc4c(C)nn23)c1`, for which the IC50 in the assay “cells” was 26.5 µM (active). `Cc1ccc(C)c(C(=O)C2=C(O)C(=O)N(CCCn3ccnc3)C2c2ccncc2)c1` (stereo not drawn): the Ki at fMet-Leu-Phe receptor is > 66.7 µM (inactive). In addition, the EC50 in assay [2] was > 50 µM (not active). In the case of `COC(=O)C1=C(c2ccc(F)cc2F)C[C@@H]2CC[C@H]1N2C(=O)N1CCC(C)CC1`, the half-maximal inhibitory concentration (IC50) in the assay “cells” was 41.2 µM (active). In [5], the CC50 was 34.2 µM (active). Take `CNC(=O)NC(=O)C(C)OC(=O)c1oc2ccccc2c1CSc1ccc(Cl)cc1` (stereo not drawn): the half-maximal activity concentration (AC50) in assay [6] was 12.3 µM (active). Further, on X-box-binding protein 1, the “Absolute IC50 (XBP1)” value is 10 µM. With `COc1ccc(CC(=O)Nc2ccc(-c3nnc(-c4ccc(C)cc4)o3)cc2)cc1`, the results for the IC50 in [7], in [8] and in assay [9] were 14.4 µM (active), > 50 µM (inactive) and > 100 µM (not active), respectively. Besides, at fMet-Leu-Phe receptor, the Ki was > 66.7 µM (inactive).

Take `CCOC(=O)c1cnc(SC)nc1Sc1ccc(Cl)cc1Cl`: in the assay on HeLa, the AC50 was 261 µM (active). As to `COCc1c(C(=O)OC)nnn1-c1ccccc1`, the half-maximal effective concentration (EC50) in assay [10], in assay [11] and in assay [12] was > 79.4 µM (not active) in each case. Turning to `Cc1c(NC(=O)c2cc3nc(-c4ccccc4)cc(C)n3n2)c(=O)n(-c2ccccc2)n1C`, at Bcl-2-like protein 10, the IC50 is 81.2 µM (inactive).

Turning to `O=C(CSc1nnc2c(n1)[nH]c1ccc(F)cc12)OCc1ccccc1`, the AC50 at Cytochrome P450 2C9 is 0.0708 µM (inconclusive); on Cytochrome P450 3A4, 8.91 µM (inconclusive). Besides, the EC50 in [2] is reported as > 50 µM (not active).
